Values of other authors in patent publication US20100291221A1, “Method of administering dose-sparing amounts of formoterol fumarate-budesonide combination particles by inhalation” (priority 2009, published 2010).

What was measured:
[1] = 9 ug Formoterol Fumarate alone (2 puffs); first treatment day
[2] = test system: adult asthmatics; conditions: inhaled

COc1ccc(C[C@@H](C)NC[C@H](O)c2ccc(O)c(NC=O)c2)cc1.COc1ccc(C[C@@H](C)NC[C@H](O)c2ccc(O)c(NC=O)c2)cc1.O=C(O)/C=C/C(=O)O [Formoterol Fumarate, formoterol fumarate]
Change in FEV1 at 15 minutes [1]: 11%
Change in FEV1 at 120 minutes [1]: 18%
Minimum efficacy dose ([2]; adult asthmatics): approximately 4 micrograms
Level at which systemic b2 agonist effects begin to occur [2]: above 12 micrograms
